From patent US20210386706A1, “METHODS FOR THE TREATMENT OF SCLERODERMA” (Arena Pharmaceuticals, Inc., priority 2018, published 2021) come the findings set out here.

For test [1], the system named is bleomycin-induced skin fibrosis. Briefly: bleomycin-induced rodent model of skin fibrosis. Conditions: mice, PO QD. The format is in vivo, male C57BL/6 mice. The protocol:
Compound 1 was evaluated in a bleomycin-induced rodent model of skin fibrosis. Skin fibrosis was induced in male C57BL/6 mice (6-7 weeks old; 20-25 g) with bleomycin injections at a concentration of 0.5 mg/ml via subcutaneous (SC) route. The mice received 100 μl of bleomycin at 0.5 mg/ml dissolved in PBS every other day for 21 days. The following treatments were randomly assigned: 1.) sham+vehicle (10% HBPCD/saline) per oral (PO) once daily (QD); 2.) bleomycin+vehicle (10% HBPCD/saline) PO QD; 3.) bleomycin+1 mg/kg Compound 1 PO QD; 4.) bleomycin+3 mg/kg Compound 1 PO QD; 5.) bleomycin+1 mg/kg FTY720 PO 3×/week; 6.) bleomycin+90 mg/kg FTY720 intraperitoneal (IP) QD (FIG. 1). Skin tissue was harvested post-mortem, with half of the biopsy specimen fixed in 4% wt/vol. paraformaldehyde for histology and the other half snap frozen for collagen analysis (hydroxyproline assay). Histological sections (4 μm) were cut from paraffin-embedded PFA-fixed lesional skin tissue. Sections were stained with haematoxylin and eosin (H&E) and Masson's Trichrome. Images were captured at ×100 microscopic magnification for histological dermal thickness determination. Collagen deposition (FIG. 2A), dermal thickness (FIG. 2B), tissue sections (FIG. 2C), dermal fibrosis (FIG. 3A), inflammation (FIG. 3B), and average epidermal thickness (FIG. 3C) were evaluated.

Test [2] addresses S1P5 (Homo sapiens, UniProt Q9H228). Briefly: β-arrestin assay S1P5. The format is cell-based.
Test [3] addresses T1, S1P1 (Homo sapiens, UniProt P21453). Briefly: β-arrestin assay S1P1. The format is cell-based.
The target in test [4] is S1P2 (Homo sapiens, UniProt O95136). Put plainly: β-arrestin assay S1P2. The format is cell-based.
Test [5] addresses S1P3 (Homo sapiens, UniProt Q99500). Briefly: β-arrestin assay S1P3. The format is cell-based.
Test [6] addresses T1, S1P1. Put plainly: cAMP assay. To be noted: read-out: ECK, cAMP. The format is cell-based. (Cyclic AMP is a second messenger, typically raised through Gs and lowered through Gi signalling.)
Test [7] deals with T2, S1P4 (Homo sapiens, UniProt O95977).
T2 sequence (O95977 1-384): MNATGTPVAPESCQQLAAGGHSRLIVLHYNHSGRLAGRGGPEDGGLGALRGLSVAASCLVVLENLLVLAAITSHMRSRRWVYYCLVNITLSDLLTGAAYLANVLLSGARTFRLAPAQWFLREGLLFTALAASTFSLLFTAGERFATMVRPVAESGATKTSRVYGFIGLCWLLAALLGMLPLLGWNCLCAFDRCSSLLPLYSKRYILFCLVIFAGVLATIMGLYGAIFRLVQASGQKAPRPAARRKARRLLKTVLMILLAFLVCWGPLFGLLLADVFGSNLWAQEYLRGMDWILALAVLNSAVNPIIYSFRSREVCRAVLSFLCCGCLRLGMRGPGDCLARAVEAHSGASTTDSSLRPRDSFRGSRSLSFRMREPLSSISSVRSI
Briefly: β-arrestin assay S1P4. The format is cell-based.

The subject of test [8] is lymphocytes. Briefly: single ascending dose and multiple ascending dose studies in healthy subjects. The class given is in vivo.

T1 sequence (P21453 whole entry): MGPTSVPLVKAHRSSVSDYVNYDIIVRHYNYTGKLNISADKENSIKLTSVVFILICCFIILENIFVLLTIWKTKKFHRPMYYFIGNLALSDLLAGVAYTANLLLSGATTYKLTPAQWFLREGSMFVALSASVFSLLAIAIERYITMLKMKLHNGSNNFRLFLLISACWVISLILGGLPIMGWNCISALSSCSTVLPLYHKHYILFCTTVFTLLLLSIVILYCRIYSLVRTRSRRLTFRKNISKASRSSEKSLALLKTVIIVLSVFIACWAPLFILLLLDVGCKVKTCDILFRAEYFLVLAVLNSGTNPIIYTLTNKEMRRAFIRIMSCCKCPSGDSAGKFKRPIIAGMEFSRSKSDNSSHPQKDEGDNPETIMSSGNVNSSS
Sequence of S1P3 (Q99500 whole entry): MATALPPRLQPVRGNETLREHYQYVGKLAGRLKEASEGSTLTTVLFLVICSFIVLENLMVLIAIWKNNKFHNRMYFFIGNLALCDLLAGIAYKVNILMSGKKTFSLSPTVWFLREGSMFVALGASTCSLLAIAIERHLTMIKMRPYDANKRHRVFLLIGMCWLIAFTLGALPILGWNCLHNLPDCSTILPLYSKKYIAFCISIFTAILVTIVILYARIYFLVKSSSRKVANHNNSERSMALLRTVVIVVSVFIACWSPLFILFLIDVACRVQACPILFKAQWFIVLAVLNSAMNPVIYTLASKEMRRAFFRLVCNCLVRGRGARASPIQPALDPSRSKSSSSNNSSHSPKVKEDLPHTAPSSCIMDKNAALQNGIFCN
Sequence of S1P5 (Q9H228 whole entry): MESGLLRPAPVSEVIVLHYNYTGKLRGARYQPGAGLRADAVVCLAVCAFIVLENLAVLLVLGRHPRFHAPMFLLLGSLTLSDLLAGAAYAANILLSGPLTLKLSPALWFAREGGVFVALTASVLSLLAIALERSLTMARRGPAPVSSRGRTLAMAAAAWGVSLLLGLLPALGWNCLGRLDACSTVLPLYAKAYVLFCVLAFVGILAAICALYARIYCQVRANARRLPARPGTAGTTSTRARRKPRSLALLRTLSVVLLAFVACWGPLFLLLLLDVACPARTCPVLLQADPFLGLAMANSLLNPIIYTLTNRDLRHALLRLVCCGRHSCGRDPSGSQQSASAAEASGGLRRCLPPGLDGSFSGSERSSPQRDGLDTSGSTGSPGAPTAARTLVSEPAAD
Sequence of S1P2 (O95136 whole entry): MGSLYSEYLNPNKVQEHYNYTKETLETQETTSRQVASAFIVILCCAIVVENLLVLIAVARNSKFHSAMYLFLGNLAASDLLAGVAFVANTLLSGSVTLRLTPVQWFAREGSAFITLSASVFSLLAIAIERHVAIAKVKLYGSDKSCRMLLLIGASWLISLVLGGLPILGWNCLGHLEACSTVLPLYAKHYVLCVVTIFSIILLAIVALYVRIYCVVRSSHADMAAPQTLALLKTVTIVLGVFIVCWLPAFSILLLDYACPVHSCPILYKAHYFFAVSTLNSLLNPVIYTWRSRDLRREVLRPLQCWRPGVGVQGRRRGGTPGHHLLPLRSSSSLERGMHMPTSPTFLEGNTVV

For the compound `O=C(O)C[C@H]1CCc2c1[nH]c1ccc(OCc3ccc(C4CCCC4)c(C(F)(F)F)c3)cc21` [Compound 1, (R)-2-(7-(4-cyclopentyl-3-(trifluoromethyl)benzyloxy)-1,2,3,4-tetrahydrocyclopenta[b]indol-3-yl)acetic acid], in test [1] (histology, FIG. 2B), the dermal thickening result is “significantly reduced”. For the same compound, the collagen deposition result in test [1] (hydroxyproline assay, FIG. 2A) was “significantly reduced”. Besides, the EC50 in test [2] is 24.4 nM; in test [3], 6.1 nM; in test [4], greater than 10000 nM; in test [5], greater than 10000 nM; in test [6], 0.093 nM; in test [7], 147 nM. Besides, the lymphocyte lowering entry in test [8] was “demonstrated the lymphocyte lowering capabilities”.
